Square brackets hold non-standard residues; d marks the D form. Ends that are not written are not given here.
test system: FVIII deficient human plasma; assay: Thrombin generation assay (TGA) in FVIII-deficient plasma; assay type: biochemical; conditions: 0.1 U/mL FVIII; compound 7 100-6.3 uM, compounds 8 and 9 50-3.1 uM

Q: “GWKPFLWDPRVLLSSGWYGRG [Compound 7, reference compound]” was tested. Which “TGA activity in the presence of FVIII” value did it give?
A: competes with FVIII

Q: Which “TGA activity in the presence of FVIII” value does the source give for “GWKPFLWDPRVLLSSGWYGRGGGGGWKPFLWDPRVLLSSGWYGRG [Compound 9, reference compound]” here?
A: competes with FVIII

Q: Which “TGA activity in the presence of FVIII” value does the source give for “PWRRFWAWNPRSLALSTWFGRGCD [Compound 8, reference compound]” here?
A: competes with FVIII

same assay, conditions: HRF FVIII-deficient plasma (1); 2.5 μM

Q: For “PRIrTVGPGSrSASGKLTCLASYCWLFWTGIA (PRI[dR]TVGPGS[dR]SASGKLTCLASYCWLFWTGIA; not fully specified; printed as PRIrTVGPGSrSASGKLTCLASYCWLFWTGIA; cysteine pairing not given here)”, which “Thrombin Above Baseline (nM)” value is on record?
A: ++ (11-20 nM (1) or 30-59 nM (2) (++))

same assay, conditions: HRF FVIII-deficient plasma (1); 2.5 μM; listed as PRIRTVGPGSRSASGKLTCLASYCWLFWTGIA

Q: “PRIrTVGPGSrSASGKLTCLASYCWLFWTGIA (PRI[dR]TVGPGS[dR]SASGKLTCLASYCWLFWTGIA; not fully specified; printed as PRIrTVGPGSrSASGKLTCLASYCWLFWTGIA; cysteine pairing not given here)” was tested. Which “Thrombin Above Baseline (nM)” value did it give?
A: + (1-10 nM (1) or 1-29 nM (2) (+))

same assay, conditions: HRF FVIII-deficient plasma (1); 5 μM

Q: “PRIrTVGPGSrSASGKLTCLASYCWLFWTGIA (PRI[dR]TVGPGS[dR]SASGKLTCLASYCWLFWTGIA; not fully specified; printed as PRIrTVGPGSrSASGKLTCLASYCWLFWTGIA; cysteine pairing not given here)” was tested. Which “Thrombin Above Baseline (nM)” value did it give?
A: +++ (21-30 nM (1) or 60-90 nM (2) (+++))

same assay, conditions: HRF FVIII-deficient plasma (1); 5 μM; listed as PRIRTVGPGSRSASGKLTCLASYCWLFWTGIA

Q: Which “Thrombin Above Baseline (nM)” value does the source give for “PRIrTVGPGSrSASGKLTCLASYCWLFWTGIA (PRI[dR]TVGPGS[dR]SASGKLTCLASYCWLFWTGIA; not fully specified; printed as PRIrTVGPGSrSASGKLTCLASYCWLFWTGIA; cysteine pairing not given here)” here?
A: ++ (11-20 nM (1) or 30-59 nM (2) (++))

same assay, conditions: HRF FVIII-deficient plasma (1); 10 μM

Q: Which “Thrombin Above Baseline (nM)” value does the source give for “PRIrTVGPGSrSASGKLTCLASYCWLFWTGIA (PRI[dR]TVGPGS[dR]SASGKLTCLASYCWLFWTGIA; not fully specified; printed as PRIrTVGPGSrSASGKLTCLASYCWLFWTGIA; cysteine pairing not given here)” here?
A: +++ (21-30 nM (1) or 60-90 nM (2) (+++))

same assay, conditions: HRF FVIII-deficient plasma (1); 20 μM

Q: Which “Thrombin Above Baseline (nM)” value does the source give for “PRIrTVGPGSrSASGKLTCLASYCWLFWTGIA (PRI[dR]TVGPGS[dR]SASGKLTCLASYCWLFWTGIA; not fully specified; printed as PRIrTVGPGSrSASGKLTCLASYCWLFWTGIA; cysteine pairing not given here)” here?
A: +++ (21-30 nM (1) or 60-90 nM (2) (+++))

same assay, conditions: Precision Biologics FVIII-deficient plasma (2), first Baseline (2) series; 2.5 μM

Q: With “PRIrTVGPGSrSASGKLTCLASYCWLFWTGIA (PRI[dR]TVGPGS[dR]SASGKLTCLASYCWLFWTGIA; not fully specified; printed as PRIrTVGPGSrSASGKLTCLASYCWLFWTGIA; cysteine pairing not given here)” as the substance, how does the “Thrombin Above Baseline (nM)” value read?
A: ++ (11-20 nM (1) or 30-59 nM (2) (++))

same assay, conditions: Precision Biologics FVIII-deficient plasma (2), first Baseline (2) series; 5 μM

Q: Which “Thrombin Above Baseline (nM)” value does the source give for “PRIrTVGPGSrSASGKLTCLASYCWLFWTGIA (PRI[dR]TVGPGS[dR]SASGKLTCLASYCWLFWTGIA; not fully specified; printed as PRIrTVGPGSrSASGKLTCLASYCWLFWTGIA; cysteine pairing not given here)” here?
A: +++ (21-30 nM (1) or 60-90 nM (2) (+++))

same assay, conditions: Precision Biologics FVIII-deficient plasma (2), first Baseline (2) series; 10 μM

Q: “PRIrTVGPGSrSASGKLTCLASYCWLFWTGIA (PRI[dR]TVGPGS[dR]SASGKLTCLASYCWLFWTGIA; not fully specified; printed as PRIrTVGPGSrSASGKLTCLASYCWLFWTGIA; cysteine pairing not given here)” was tested. Which “Thrombin Above Baseline (nM)” value did it give?
A: +++ (21-30 nM (1) or 60-90 nM (2) (+++))

target: FIXa (Homo sapiens, UniProt P00740); assay: FXa generation assay with human FIXa; assay type: biochemical; parameters: purchased Haematologic Technologies; conditions: FXa generation assay using human FIXa; class symbols
Sequence (P00740 47-191 limits assumed): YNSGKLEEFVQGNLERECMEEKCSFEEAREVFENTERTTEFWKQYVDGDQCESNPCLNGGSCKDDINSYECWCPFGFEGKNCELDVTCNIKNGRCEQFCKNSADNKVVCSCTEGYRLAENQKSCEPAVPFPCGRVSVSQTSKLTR
Sequence (P00740 227-461 limits assumed): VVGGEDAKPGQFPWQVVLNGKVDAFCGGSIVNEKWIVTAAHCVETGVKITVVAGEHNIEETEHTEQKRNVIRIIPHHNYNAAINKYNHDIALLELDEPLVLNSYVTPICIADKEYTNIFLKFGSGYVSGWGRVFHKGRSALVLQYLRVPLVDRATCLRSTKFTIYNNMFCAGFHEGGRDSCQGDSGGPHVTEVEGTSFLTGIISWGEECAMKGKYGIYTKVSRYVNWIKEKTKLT

Q: How did the Vmax turn out when RHSNHNLTCQASYCWLLPAGLQ was run?
A: (+) ((+)<1)

Q: Which EC50 does the source give for KLTCLASYCQLF here?
A: 500 to 1000 nM

Q: And the Vmax?
A: (++++) ((++++)>3)

Q: Which Vmax does the source give for VAHYGKVTCLASYCQPLPSVGA here?
A: (+) ((+)<1)

Q: KLTCLASYCWIF was tested. Which EC50 did it give?
A: 500 to 1000 nM

Q: And the Vmax?
A: (+++) ((+++)>2)

Q: Which Vmax does the source give for EQTCLASYCWLF here?
A: (+) ((+)<1)

Q: For VSGTGRLTCVASYCWMFQLGSF, which Vmax is on record?
A: (++) ((++) 1-2)

Q: For GVEDRQLTCLASSCWVFSRHSV, which Vmax is on record?
A: (++) ((++) 1-2)

Q: KEGFAQLPCLVCQGGLFSPRAI was tested. Which Vmax did it give?
A: (+) ((+)<1)

Q: AQLRRKLTCLASYCWLFGFFSP was tested. Which Vmax did it give?
A: (++) ((++) 1-2)

Q: For SLADTQLTWLARQYWLSVSEGS, which Vmax is on record?
A: (+) ((+)<1)

Q: How did the Vmax turn out when RLTCLASYCWLF was run?
A: (+++) ((+++)>2)

Q: For KRYVYRQMCLVSACWLLQLGYA, which Vmax is on record?
A: (++) ((++) 1-2)

Q: WHERQQLTCLASYCGLFVGQVA was tested. Which Vmax did it give?
A: (+) ((+)<1)

Q: VQRSTQLTCLYGGCRLFGWNYH was tested. Which Vmax did it give?
A: (+) ((+)<1)

Q: For LQELTKLTCLARSGWLVCNPGY, which Vmax is on record?
A: (+) ((+)<1)

Q: For HMQWGKLPCLASYCWLFWYGIG, which Vmax is on record?
A: (+++) ((+++)>2)

Q: How did the Vmax turn out when SKWEHQRGCLANNCWLFTLAPG was run?
A: (+) ((+)<1)

Q: How did the Vmax turn out when VSGTGKLTCLASYCWLFQLGSF was run?
A: (++) ((++) 1-2)

Q: For RGSVHQPTCLGGYCGRLHSSWV, which Vmax is on record?
A: (+) ((+)<1)

Q: GFGSRKLTSLASYGWLIQDRLP was tested. Which Vmax did it give?
A: (+) ((+)<1)

Q: With QDGVEKLTCLASYCWRFGDHGA as the substance, how does the Vmax read?
A: (+) ((+)<1)

Q: KLTCLKSYCWLF was tested. Which Vmax did it give?
A: (++) ((++) 1-2)

Q: FGQPSRLTCLASYCWLFGNLVT was tested. Which Vmax did it give?
A: (++) ((++) 1-2)

Q: Which Vmax does the source give for ERYRLDMTCMASQCWQFPPAAG here?
A: (++) ((++) 1-2)

Q: Which Vmax does the source give for MLTCIASYCQLG here?
A: (+) ((+)<1)

Q: With TLDSKNLQCLGSSCWLFSSGLS as the substance, how does the Vmax read?
A: (+) ((+)<1)

Q: DAKVAKLRCLGSQCWLLQYAPG was tested. Which Vmax did it give?
A: (++) ((++) 1-2)

Q: Which Vmax does the source give for GEGGGKLSCVAIQCGLFKGLGR here?
A: (+) ((+)<1)

Q: How did the Vmax turn out when KKTCLASYCWLF was run?
A: (++) ((++) 1-2)

Q: MAGMLKLTCFASYCGLFPLVSS was tested. Which Vmax did it give?
A: (++) ((++) 1-2)

Q: RSFTSELTCLASSCRRFHHVPP was tested. Which Vmax did it give?
A: (+) ((+)<1)

Q: Which results are given for KLTCLASYCFLF?
A: EC50: 500 to 1000 nM; Vmax: (++++) ((++++)>3)

Q: Which Vmax does the source give for GAQLDKETCLASYCQLFSTVRR here?
A: (+) ((+)<1)

Q: For TLLYQNRTCLASYCWLFDKRSV, which Vmax is on record?
A: (+) ((+)<1)

Q: For RSTVSQMRCLASYCWLFPALVS, which Vmax is on record?
A: (++) ((++) 1-2)

Q: Which Vmax does the source give for RGRSAKLTCLASYCWLFFGVIL here?
A: (+++) ((+++)>2)

Q: For NPTCQASYCQLF, which Vmax is on record?
A: (+) ((+)<1)

Q: For KGAYQKLTCLASYCLLFLLTAQ, which Vmax is on record?
A: (++) ((++) 1-2)

Q: With QLTCLASYCGGV as the substance, how does the Vmax read?
A: (+) ((+)<1)

Q: LTWREKLACLASYCWLFLWGAP was tested. Which Vmax did it give?
A: (++) ((++) 1-2)

Q: How did the Vmax turn out when KLTCLSSYCWLF was run?
A: (+++) ((+++)>2)

Q: KLTCKASYCWLF was tested. Which Vmax did it give?
A: (++++) ((++++)>3)

Q: For KLTCQASYCWLF, which Vmax is on record?
A: (++) ((++) 1-2)

Q: How did the Vmax turn out when KLTCLASYCQLV was run?
A: (+++) ((+++)>2)

Q: For AQTRVARCCQLF, which Vmax is on record?
A: (+) ((+)<1)

Q: KGRCLTSHCWLF was tested. Which Vmax did it give?
A: (+) ((+)<1)

Q: Which Vmax does the source give for VGEHRKISCVASNCQLLRSGLA here?
A: (+) ((+)<1)

Q: With QAKMLKLTCLASYCWLFWVTRS as the substance, how does the Vmax read?
A: (+++) ((+++)>2)

Q: How did the Vmax turn out when QLTCLASYCWLF was run?
A: (+) ((+)<1)

Q: Which Vmax does the source give for SYGRTKLTCLASSCWLFGQVHG here?
A: (+) ((+)<1)

Q: For AVAINKVPCVASYCQLFESKIH, which Vmax is on record?
A: (+) ((+)<1)

Q: Which Vmax does the source give for KLSCQAGQCWVF here?
A: (+++) ((+++)>2)

Q: Which Vmax does the source give for DSRSAKRKCLASYCWLFGIGQA here?
A: (+) ((+)<1)

Q: How did the Vmax turn out when KLTCLASKCWLF was run?
A: (+) ((+)<1)

Q: For RPGGGKVTCQASYCWPFLARAG, which Vmax is on record?
A: (+) ((+)<1)

Q: With VDKGHQLRCQAGYCWLLGYNRE as the substance, how does the Vmax read?
A: (+) ((+)<1)

Q: For QLTCLASECGLS, which Vmax is on record?
A: (+) ((+)<1)

Reference: US9486507B2, “Pro-coagulant compounds and methods of use thereof” (priority 2011, dated 2016)
